Paper PMC10384408, “Anticancer Tungstenocenes with a Diverse Set of (O,O–), (O,S–) and (O,N–) Chelates—A Detailed Biological Study Using an Improved Evaluation via 3D Spheroid Models” (Pharmaceutics, 2023)

Legend:
[1] = system: HCT116 multicellular tumor spheroids; test: Resazurin assay, HCT116 3D spheroids; type: cell-based, human; conditions: 96 h; for IC50: spheroids
Protocol: (§1) CH1/PA-1 (ovarian teratocarcinoma), SW480 (colon carcinoma) and A549 (non-small cell lung cancer) cells were maintained as described in the reference. IMR-90 human fetal lung fibroblasts (from the European Collection of Authenticated Cell Cultures, Porton Down, Salisbury, UK) were cultured in Stable Cell^TM DMEM/F12 supplemented with 0.01 mg/mL human recombinant insulin (both purchased from Sigma-Aldrich) and 10% fetal bovine serum (FBS, BioWest, Nuaillé, France). Human colon carcinoma cell lines HCT116 and HT29 (both kindly provided by the Institute of Cancer Research, Department of Medicine I, Medical University of Vienna, Austria) were cultured in McCoy’s 5a medium supplemented with 4 mM L-glutamine (both purchased from Sigma-Aldrich) and 10% FBS. MCF-7 human breast adenocarcinoma cells (kindly provided by M. Ogris, Department of Pharmaceutical Sciences, University of Vienna, Austria) were maintained in DMEM (high glucose) supplemented with 4 mM L-glutamine, 0.1 mg/mL human insulin (all purchased from Sigma-Aldrich) and 10% FBS. All cell lines were grown as monolayers in 75 cm^2 culture flasks (CytoOne, Starlab, Hamburg, Germany) at 37 °C in a humidified atmosphere containing 5% CO2.
(§2) For growing multicellular tumor spheroids, 400 HCT116, 400 HT29 or 800 MCF-7 cells per well were plated into round-bottom ultra-low attachment 96-well plates (Corning, Glendale, AZ, USA) in the media described above and incubated at 37 °C for 96 h. Spheroids were treated with 10 µM of the two most cytotoxic compounds 3 and 4 for another 96 h. The diameters of the spheroids were measured with Cell^F software under a CKX41 Olympus microscope before treatment and in constant daily intervals over the 96 h treatment period. For statistical analysis the t-test with Welsh’s correction was implemented in GraphPad Prism software (Version 6.01).
(§3) For the resazurin assay in monolayer cultures, cells were seeded into 96-well microculture plates (CytoOne, tissue culture treated, Starlab, Hamburg, Germany) in densities of 2 × 10^3 HCT116, 2 × 10^3 HT29 and 4 × 10^3 MCF-7 cells per well (each in 100 µL). For tests in 3D cultures, spheroids were grown as described above. After 24 h (for monolayers) or 4 days (for spheroids) the test compounds in the appropriate medium were added in serial dilution to the plates to obtain a total volume of 200 µL/well. Wells without cells, containing medium and resazurin (Alfa Aesar, Thermo Fisher, Kandel, Germany) solution were used as blanks. After 96 h exposure 20 µL of the resazurin solution (440 µM) were added to each well, followed by a 4 h (2D) or 12 h (3D) incubation period. Resorufin fluorescence was quantified at 530 nm (and a reference wavelength of 620 nm) by using a microplate reader (Synergy HT, BioTek) with Gen5^TM 3.10 software (BioTek).

[2] = system: HT29 multicellular tumor spheroids; test: Resazurin assay, HT29 3D spheroids; type: cell-based, human; conditions: 96 h; for IC50: spheroids
Protocol: as §1, §2, §3

MCF-7 cells = test: Resazurin assay, MCF-7 2D monolayer; type: cell-based, human; conditions: 96 h
Protocol: as §1, §3

[3] = system: MCF-7 multicellular tumor spheroids; test: Resazurin assay, MCF-7 3D spheroids; type: cell-based, human; conditions: 96 h; for IC50: spheroids
Protocol: as §1, §2, §3

[4] = Solubility in PBS (1% DMSO); type: physicochemical
Protocol: Stock solutions in DMSO of compounds 1–10 were utilized to determine the solubility in PBS by adding 1 vol% of the stock solution to a suitable amount of PBS. […] UV/Vis data were recorded on a Perkin Elmer Lambda 650 UV/Vis Spectrophotometer with a Peltier element for temperature control.

[5] = Cyclic voltammetry in MeCN (W(IV) to W(V)); type: physicochemical; conditions: vs. NHE, scan rate 200 mV/s
Protocol: NMR spectra were recorded with a Bruker FT-NMR Avance III^TM 500 MHz spectrometer at 500.10 (^1H), and 125.75 MHz (^13C) using DMSO–d6. 2D-NMR measurements were recorded utilizing standard pulse programs COSY, HSQC and HMBC. The Microanalytical Laboratory of the University of Vienna performed the elemental analyses with a Eurovector EA 3000(2009) equipped with a high temperature pyrolysis furnace (HT, Hekatech, Germany, 2009). Elemental analyses’ samples were weighed (weights from 1–3 mg were used) on a Sartorius SEC 2 ultra-micro balance with ±0.1 µg resolution. Two NIST-certified reference materials were used for calibration: sulfanilamide (C6H8N2O2S) and BBOT (2,5-bis-(5-tert-butyl-2-benzoxazol-2-yl)-thiophenone, C26H26N2O2S). The limit of quantification (LOQ) was 0.05 w% for C, H, N and 0.02 w% for S. For samples without N and/or S, the content of these elements was determined and verified to be below the LOQ. X-ray diffraction analyses were carried out on a Bruker X8 APEX II CCD diffractometer at 100 K. ESI-MS were recorded on a Bruker AmaZon SL ion trap mass spectrometer (Bruker Daltonics GmbH). Data were obtained and processed with Compass 1.3 and Data Analysis 4.0 (Bruker Daltonics GmbH). Infrared spectra were attained on a Bruker Vertex 70 FT-IR-spectrometer with an ATR-unit (attenuated total reflection unit) in the range of 4000–600 cm^−1. Intensities of the reported bands are described with w for weak, m for medium and s for strong; broad signals are additionally specified with the letter b in front of these abbreviations. Cyclic voltammograms (CVs) were measured in a three-electrode cell using 2 mm diameter glassy carbon disk working electrode, a platinum auxiliary electrode and an Ag|Ag^+ reference electrode containing 0.1 M AgNO3. Measurements were carried out at room temperature using an EG&G PARC potentiostat/galvanostat 273A. The solutions were deoxygenized by purging a stream of argon for 3 min through the solution and the experiment was performed under an argon atmosphere. The potentials were measured in a freshly prepared solution of (n Bu4N)[BF4] (0.1 M) in acetonitrile using ferrocene (Fe(η^5-C5H5)2) (E1/2 = +0.72 V vs. NHE) as an internal standard and are quoted relative to the normal hydrogen electrode (NHE).
The electrochemical behavior of all complexes and the precursor Cp2WCl2 was studied by cyclic voltammetry with a scan rate of 200 mV/s, from −0.5 to +1.2 or +1.5 V. Measurements were performed in triplicate. Due to low water solubility of compounds 1–10 acetonitrile (MeCN) was utilized in order to reach the 2 mM concentration.

HCT116 cells = test: Annexin V-FITC/PI apoptosis assay, HCT116; type: cell-based, human; conditions: HCT116, 24 h, 200 µM; for ∑apoptotic cells [%]: sum of early and late

SMILES | IC50 [1] [µM] | IC50 [2] [µM] | IC50 (MCF-7 cells) [µM] | IC50 [3] [µM] | Solubility in PBS (1% DMSO) [4] [µg/mL] | E1/2 [5] [V] | early apoptotic cells [%] AV+ / PI- (HCT116 cells) [%] | late apoptotic cells [%] AV+ / PI+ (HCT116 cells) [%] | necrotic cells [%] AV- / PI+ (HCT116 cells) [%] | viable cells [%] AV- / PI- (HCT116 cells) [%] | ∑apoptotic cells [%] (HCT116 cells) | ratio 3D/2D of IC50 values, HCT116 [1] | ratio 3D/2D of IC50 values, HT29 [2] | ratio 3D/2D of IC50 values, MCF-7 [3]
Cc1cc(=S)c([O-])co1.F[P-](F)(F)(F)(F)F.[W+4].c1cc[cH-]c1.c1cc[cH-]c1 [Compound 8, Bis(η^5-cyclopentadienyl)[2-methyl-5-(oxo-κO)-pyran-4-(1H)-thionato-κS] tungsten(IV) hexafluorophosphate] | 178 ± 14 | > 200 | 163 ± 32 | > 200 | 410 | 1.080 | 5.5 ± 2.0 | 12.4 ± 2.4 | 2.8 ± 1.3 | 79.4 ± 3.5 | 17.9 | – | – | –
CCc1occc(=O)c1[O-].F[P-](F)(F)(F)(F)F.[W+4].c1cc[cH-]c1.c1cc[cH-]c1 [Compound 9, Bis(η^5-cyclopentadienyl)[2-ethyl-3-(oxo-κO)-4-(1H)-pyran-4-ato-κO] tungsten(IV) hexafluorophosphate] | > 200 | > 200 | 147 ± 15 | > 200 | 550 | 1.038 | 1.5 ± 0.8 | 2.3 ± 0.3 | 2.3 ± 0.4 | 93.9 ± 0.5 | 3.8 | – | – | –
CCc1occc(=S)c1[O-].F[P-](F)(F)(F)(F)F.[W+4].c1cc[cH-]c1.c1cc[cH-]c1 [Compound 10, Bis(η^5-cyclopentadienyl)[2-ethyl-3-(oxo-κO)-4-(1H)-pyran-4-thionato-κS] tungsten(IV) hexafluorophosphate] | 69 ± 12 | > 200 | 29 ± 4 | > 200 | 320 | 1.064 | 3.8 ± 3.2 | 4.3 ± 3.6 | 2.4 ± 0.7 | 89.6 ± 7.5 | 8.0 | 1.6 | > 3.7 | > 6.9
